pIC50: −log10 of the molar value. Some results are limits rather than exact numbers.

Usually pIC50 stands for −log10 of the IC50, conventionally taken in molar units. A high value points to a low IC50. Broadly, the inhibition is how much of the control response was suppressed. As a reminder, the melting point is the temperature of the solid-liquid transition.

One series has as its system Colo205 (colon). As to the kind of experiment: MTT cell viability assay, Colo205. Type of series: cell-based. Particulars: Homo sapiens, COLO 205, 48 h treatment. As for the experimental part:
(§1) Anticancer activity of dysoline (1) along with rohitukine was evaluated using MTT cell viability assay on […] cancer cell lines viz. Colo205 (colon), HCT116 (colon), HT1080 (fibrosarcoma), NCIH322 (lung), A549 (lung), Molt-4 (leukemia) and HL60 (leukemia).
(§2) The cell were originated from The European Collection of Cell Cultures (ECACC, UK) and purchased through Sigma-Aldrich India.
(§3) The MTT assay was used to assess the effect of the test molecules on cell viability. Cell viability on eight cell lines viz. Colo205 (colon), HCT116 (colon), HT1080 (fibrosarcoma), NCIH322 (lung), A549 (lung), Molt-4 (leukemia) and HL60 (leukemia) was investigated. In each well of a 96-well plate, 3×10^3 cells were grown in 100 μL of medium. After 24 h, each test molecules were added to achieve a final concentration of 10 to 0.01 μmol/L, respectively. After 48 h of treatment, 20 μL of 2.5 mg/mL MTT (Organics Research, Inc.) solution in phosphate buffer saline was added to each well. After […], supernatant was removed and formazan crystals were dissolved in 200 μL of DMSO. Absorbance was then measured at 570 nm using an absorbance plate reader (Bio-Rad Microplate Reader). Data are expressed as the percentage of viable cells in treated relative to non-treated conditions. Each experiment was repeated thrice and data was expressed as mean±SD of three independent experiments (Mol. Cancer Ther. 2010, 9, 358-368).
In general terms: Tetrazolium dyes change colour on reduction, which living cells bring about.

Another series relates to HCT116 (colon). As to the kind of experiment: MTT cell viability assay, HCT116. The conditions noted are these: Homo sapiens, HCT-116, 48 h treatment. Type of series: cell-based. As to the method:
as §1, §2, §3

For another series, the system named is HT1080 (fibrosarcoma). As to the kind of experiment: MTT cell viability assay, HT1080. Type of series: cell-based. The conditions noted are these: 48 h treatment. As for the experimental part: as §1, §2, §3
The subject of a further series is NCIH322 (lung). Briefly: MTT cell viability assay, NCIH322. Type of series: cell-based. The conditions noted are these: NCI-H322, 48 h treatment. As to the method:
as §1, §2, §3

The next series deals with A549 (lung). As to the kind of experiment: MTT cell viability assay, A549. Type of series: cell-based. The conditions noted are these: Homo sapiens, 48 h treatment. As to the method:
as §1, §2, §3

The subject of a further series is Molt-4 (leukemia). Briefly: MTT cell viability assay, MOLT-4. Type of series: cell-based. Particulars: Homo sapiens, 48 h treatment. As to the method:
as §1, §2, §3

A further series has as its system HL60 (leukemia). As to the kind of experiment: MTT cell viability assay, HL-60. Type of series: cell-based. The conditions noted are these: Homo sapiens, HL-60 (leukemia), 48 h treatment. As to the method:
as §1, §2, §3

A further series relates to TNF-α. Briefly: Inhibition of TNF-α production in splenocytes (ELISA). The series is classed as cell-based, male Balb/c mice. The conditions noted are these: 72 h, Con A or LPS; for inhibition at 0.01 µM / inhibition at 0.1 µM / inhibition at 1 µM / inhibition at 10 µM / inhibition at 100 µM: Mus musculus, Splenocyte, read-out: Percentage inhibition of cytokine production, TNF-α. As for the experimental part:
(§4) Anti-inflammatory activity of dysoline (1) was evaluated by inhibiting production of pro-inflammatory cytokines such as tumor necrosis factor-alpha (TNF-α) and interleukin-6 (IL-6). […] The TNF-α inhibition activity of dysoline was compared with rohitukine.
(§5) Splenocytes of male Balb/c mice were seeded into three to four wells of a 96-well flat-bottom microtiter plate (Nunc) at 2×10^6 cells/ml. Cells were incubated with different concentrations of dysoline (0.01 μM-100 μM) along with Con A (2.5 μg/well) or LPS (1 μg/ml) for 72 h at 37° C. with 5% CO2 in CO2 incubator. The culture supernatants were harvested and the measurement of cytokines (TNF-α and IL-6) in the culture supernatants was carried out using commercial kits as per manufacturer's instructions by using ELISA kits (R&D, USA) (Life Sci. 2007, 80, 1525-1538; J. Immunol. Methods 1983, 65, 55-63).
For orientation: ELISA stands for enzyme-linked immunosorbent assay.

For another series, the system named is IL-6. Briefly: Inhibition of IL-6 production in splenocytes (ELISA). The series is classed as cell-based, male Balb/c mice. Particulars: Splenocyte, mouse splenocytes, Con A or LPS, 72 h, read-out: Percentage inhibition of cytokine production, IL-6. As for the experimental part:
as §4, §5

A further series can be described thus: Water solubility. The series is classed as physicochemical.
The nature of the next series: Stability. The series is classed as physicochemical.
In series [1] the test system is HL-60 promyelocytic leukemia. The conditions noted are these: human HL-60 promyelocytic leukemia; cited from earlier work.
Series [2] concerns HCT-116 colon cancer cells. The conditions noted are these: cited from earlier work.

Molecule `Cc1cc(=O)c2c(O)c(C3CCN(C)CC3O)c(O)cc2o1` (centres unmarked) [Dysoline (1), 5,7-dihydroxy-6-(3-hydroxy-1-methylpiperidin-4-yl)-2-methyl-4H-chromen-4-one] registered a melting point of 310 to 315 °C. Further, the pIC50 with Colo205 (colon) is < 5.00. For the same molecule, the negative logarithm of the IC50 (pIC50) with HCT116 (colon) is < 5.00. In the series with HT1080 (fibrosarcoma) (Homo sapiens, HT-1080, 48 h), the negative-log IC50 (pIC50) was 6.68. Moreover, the negative logarithm of the IC50 (pIC50) in the series on NCIH322 (lung) was < 5.00. Also, in the series on A549 (lung), the pIC50 is < 5.00. Further, in the series with Molt-4 (leukemia), the negative-log IC50 (pIC50) was < 5.00. Further, the pIC50 with HL60 (leukemia) is 5.00. Moreover, in the series on TNF-α, the inhibition at 0.01 µM worked out at 28%, the inhibition at 0.1 µM stood at 47%, the inhibition at 10 µM was found to be 54% and the inhibition at 100 µM turned out to be 56%. For the same molecule, the inhibition at 1 µM in the series on TNF-α (1 μM) amounted to 53%. Besides, in the series with IL-6, the inhibition at 0.01 µM was 72%, the inhibition at 0.1 µM was 83%, the inhibition at 1 µM is 83% and the inhibition at 10 µM came out at 89%. The inhibition at 100 µM in the series with IL-6 worked out at 99%. In “Water solubility”, the water solubility entry is “good water solubility”. Besides, the stability entry in “Stability” is recorded as “stable”.
For the molecule `Cc1cc(=O)c2c(O)cc(O)c([C@H]3CCN(C)C[C@H]3O)c2o1` [Rohitukine, 5,7-dihydroxy-2-methyl-8-[4-(3-hydroxy-1-methyl)-piperidinyl]-4H-1-benzopyran-4-one], the pIC50 was < 5.00 in the series on Colo205 (colon); < 5.00 with HCT116 (colon); < 5.00 in the series on HT1080 (fibrosarcoma); > 5.00 with HT1080 (fibrosarcoma) (Homo sapiens, HT-1080, 48 h); < 5.00 with NCIH322 (lung); < 5.00 with A549 (lung). The pIC50 in the series with Molt-4 (leukemia) is < 5.00; in the series on HL60 (leukemia), 5.00. Also, the “Percentage inhibition of cytokine production, TNF-α” value in the series with TNF-α (1 μM, mouse splenocytes) came to 28%. Also, the values for the inhibition at 0.01 µM in the series on TNF-α and with IL-6 were 18% and 10%, respectively. The results for the inhibition at 0.1 µM with TNF-α and in the series with IL-6 were 22% and 30%, respectively. Also, the inhibition at 1 µM in the series with TNF-α (1 μM) was 32%; with IL-6 it was 80%. Besides, the figures for the inhibition at 10 µM in the series on TNF-α and with IL-6 were 32% and 88%, respectively. For the same molecule, the inhibition at 100 µM in the series on TNF-α turned out to be 47%; in the series on IL-6, 89%. Also, the cytotoxicity entry in series [1] and in series [2] was “moderate cytotoxicity” each time.

These data come from patent US9776989B2, “Chromone alkaloid dysoline for the treatment of cancer and inflammatory disorders” (Council of Scientific & Industrial Research, priority 2013, dated 2017).
